Laboratory results as given in patent US6875786B2, “Thrombopoietin mimetics” (SmithKline Beecham Corporation, priority 2001, dated 2005).

System: 32D-mpl cells
Assay: proliferation of 32D-mpl cells
Type: cell-based
Procedure: The compound of Example 1, promoted the proliferation of 32D-mpl cells at a concentration of 0.03 to 30 uM.

Compound: CC1=NN(c2ccc(C)c(C)c2)C(=O)C1=CNc1cccc(-c2cccc(C(=O)O)c2)c1O [Example 1, 3′-{[1-(3.4-Dimethylphenyl)-3-methyl-5-oxo-1,5-dihydropyrazol-4-ylidenemethyl]amino}-2′-hydroxybiphenyl-3-carboxylic Acid]
- EC50: 0.67 µM
- % TPOmax (relative to TPO maximum): 85%
